# Tests used:
# [1] = test system: mouse imiquimod-induced psoriasis model; experiment: Ear thickening suppression test using mouse imiquimod-induced psoriasis model; assay type: in vivo; conditions: topical, 120 h, application of a 0.01% methanol solution for 4 days, thickness measured on day 5, BALB/c mice, read-out: rate of inhibition of increase in right auricle thickness
# Protocol: Ear Thickening Suppression Test Using Mouse Imiquimod-Induced Psoriasis Model
# An imiquimod-induced psoriasis model test was carried out by modifying the method of Leslie van der Fits et al. (J. Immunol. 182, 5836 (2009)). BALB/c mice were used (female, supplied by Charles River Laboratories Japan, Inc.) as laboratory animals. On the start day of the test, the thicknesses of the right auricles of the mice were measured with a thickness gauge (model SMD-565J manufactured by TECLOCK Corp.). A test compound solution or only a solvent was applied or orally administered, and after 60 minutes, 5 mg of imiquimod (Beselna Cream 5% manufactured by Mochida Pharmaceutical Co., Ltd.) was applied to the insides of the right auricles. The test compound solution or solvent administration and the imiquimod application were carried out for 4 days, and the thicknesses of the right auricles were measured again on day 5. When increase in the thicknesses of the right auricles of the solvent-administered group on day 5 was defined as 100%, the rate of inhibition of increase (%) at each dose of the test compound was calculated.
# [2] = test system: human large intestine cancer cell line (HCT-116); experiment: Human large intestine cancer (HCT-116) cell growth inhibition test; assay type: cell-based; conditions: 72 h, HCT-116, culture for 3 days, sulforhodamine B absorbance
# Method in brief: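 HCT-116 cells seeded at 1.0×10^3 cells/well in McCoy's 5a with 10% FBS, then exposed to compound (0.1% DMSO final) for 3 days. Growth measured by sulforhodamine B absorbance; IC50 derived from concentration-inhibition data.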
SMILES,IC50 [2],inhibition in vivo at 0.01 % [1]
"CC(C)(CO)C(NC(=O)N1Cc2c(NC(=O)C3([Si](C)(C)C)CCC3)n[nH]c2C1(C)C)c1ccccc1 (single isomer, unassigned; (-)) [IV-673, (−)-N-(3-Hydroxy-2,2-dimethyl-1-phenylpropyl)-6,6-dimethyl-3-[1-(trimethylsilyl)cyclobutanecarboxamido]-4,6-dihydropyrrolo[3,4-c]pyrazole-5(1H)-carboxamide]",≤ 500 nM,≥ 50%
"CC1(C)c2[nH]nc(NC(=O)C3([Si](C)(C)C)CCC3)c2CN1C(=O)O[C@H](CO)c1ccccc1 [IV-2, (S)-2-Hydroxy-1-phenylethyl 6,6-dimethyl-3-[1-(trimethylsilyl)cyclobutanecarboxamido]-4,6-dihydropyrrolo[3,4-c]pyrazole-5(1H)-carboxylate]",≤ 500 nM,
"CC[Si](C)(C)C1(C(=O)Nc2n[nH]c3c2CN(C(=O)N[C@H](CO)c2ccccc2)C3(C)C)CCC1 [IV-117, (S)-3-[1-(Ethyldimethylsilyl)cyclobutanecarboxamido]-N-(2-hydroxy-1-phenylethyl)-6,6-dimethyl-4,6-dihydropyrrolo[3,4-c]pyrazole-5(1H)-carboxamide]",≤ 500 nM,
"CC1(C)c2[nH]nc(NC(=O)C3([Si](C)(C)C)CCC3)c2CN1C(=O)NCCO [IV-438, N-(2-Hydroxyethyl)-6,6-dimethyl-3-[1-(trimethylsilyl)cyclobutanecarboxamido]-4,6-dihydropyrrolo[3,4-c]pyrazole-5(1H)-carboxamide]",≤ 500 nM,
"CC1(C)c2[nH]nc(NC(=O)C3([Si](C)(C)C)CCC3)c2CN1C(=O)NC(c1ccccc1)C1(CO)CCC1 (stereo not drawn) [IV-718, N-{[1-(Hydroxymethyl)cyclobutyl](phenyl)methyl}-6,6-dimethyl-3-[1-(trimethylsilyl)cyclobutanecarboxamido]-4,6-dihydropyrrolo[3,4-c]pyrazole-5(1H)-carboxamide]",≤ 500 nM,≥ 50%
"CC1(C)c2[nH]nc(NC(=O)C3([Si](C)(C)C)CCC3)c2CN1C(=O)N[C@H](CC1(O)CC1)c1ccccc1 [IV-743, (R)—N-[2-(1-Hydroxycyclopropyl)-1-phenylethyl]-6,6-dimethyl-3-[1-(trimethylsilyl)cyclobutanecarboxamido]-4,6-dihydropyrrolo[3,4-c]pyrazole-5(1H)-carboxamide]",≤ 500 nM,≥ 50%
"CC(C)(O)C[C@@H](NC(=O)N1Cc2c(NC(=O)C3([Si](C)(C)C)CCC3)n[nH]c2C1(C)C)c1ccc(F)cc1 [IV-939, (R)—N-[1-(4-Fluorophenyl)-3-hydroxy-3-methylbutyl]-6,6-dimethyl-3-[1-(trimethylsilyl)cyclobutanecarboxamido]-4,6-dihydropyrrolo[3,4-c]pyrazole-5(1H)-carboxamide]",≤ 500 nM,≥ 50%
"CC(C)(CO)C(NC(=O)N1Cc2c(NC(=O)C3([Si](C)(C)C)CCC3)n[nH]c2C1(C)C)c1ccc(F)cc1 (stereo not drawn) [IV-946, N-[1-(4-Fluorophenyl)-3-hydroxy-2,2-dimethylpropyl]-6,6-dimethyl-3-[1-(trimethylsilyl)cyclobutanecarboxamido]-4,6-dihydropyrrolo[3,4-c]pyrazole-5(1H)-carboxamide]",≤ 500 nM,≥ 50%
"CC1(C)c2[nH]nc(NC(=O)C3([Si](C)(C)C)CCC3)c2CN1C(=O)[C@H](OC(F)(F)F)c1ccccc1 [IV-1184, (R)—N-{6,6-Dimethyl-5-[2-phenyl-2-(trifluoromethoxy)acetyl]-1,4,5,6-tetrahydropyrrolo[3,4-c]pyrazol-3-yl}-1-(trimethylsilyl)cyclobutanecarboxamide]",≤ 500 nM,≥ 50%
"COC(C(=O)N1Cc2c(NC(=O)C3([Si](C)(C)C)CCC3)n[nH]c2C1(C)C)c1cccs1 (stereo not drawn) [IV-1546, N-{5-[2-Methoxy-2-(thiophen-2-yl)acetyl]-6,6-dimethyl-1,4,5,6-tetrahydropyrrolo[3,4-c]pyrazol-3-yl}-1-(trimethylsilyl)cyclobutanecarboxamide]",≤ 500 nM,≥ 50%

# Second part, led by results:
IC50 [2],SMILES,inhibition in vivo at 0.01 % [1]
≤ 500 nM,"CN(C(=O)N1Cc2c(NC(=O)C3([Si](C)(C)C)CCC3)n[nH]c2C1(C)C)[C@H](CO)c1ccccc1 [IV-119, (S)—N-(2-Hydroxy-1-phenylethyl)-N,6,6-trimethyl-3-[1-(trimethylsilyl)cyclobutanecarboxamido]-4,6-dihydropyrrolo[3,4-c]pyrazole-5(1H)-carboxamide]",
≤ 500 nM,"CC1(C)c2[nH]nc(NC(=O)C3([Si](C)(C)C)CCC3)c2CN1C(=O)N[C@H](CCCCO)c1ccccc1 [IV-291, (R)—N-(5-Hydroxy-1-phenylpentyl)-6,6-dimethyl-3-[1-(trimethylsilyl)cyclobutanecarboxamido]-4,6-dihydropyrrolo[3,4-c]pyrazole-5(1H)-carboxamide]",
≤ 500 nM,"CC(C)[C@@H](CO)NC(=O)N1Cc2c(NC(=O)C3([Si](C)(C)C)CCC3)n[nH]c2C1(C)C [IV-475, (S)—N-(1-Hydroxy-3-methylbutan-2-yl)-6,6-dimethyl-3-[1-(trimethylsilyl)cyclobutanecarboxamido]-4,6-dihydropyrrolo[3,4-c]pyrazole-5(1H)-carboxamide]",
≤ 500 nM,"CC1(C)c2[nH]nc(NC(=O)C3([Si](C)(C)C)CCC3)c2CN1C(=O)N[C@H](CO)C1CCCCC1 [IV-495, (S)—N-(1-Cyclohexyl-2-hydroxyethyl)-6,6-dimethyl-3-[1-(trimethylsilyl)cyclobutanecarboxamido]-4,6-dihydropyrrolo[3,4-c]pyrazole-5(1H)-carboxamide]",
≤ 500 nM,"CC1(C)c2[nH]nc(NC(=O)C3([Si](C)(C)C)CCC3)c2CN1C(=O)C(CO)c1ccccc1 (stereo not drawn) [IV-632, N-[5-(3-Hydroxy-2-phenylpropanoyl)-6,6-dimethyl-1,4,5,6-tetrahydropyrrolo[3,4-c]pyrazol-3-yl]-1-(trimethylsilyl)cyclobutanecarboxamide]",
≤ 500 nM,"CC(C)(O)C[C@@H](NC(=O)N1Cc2c(NC(=O)C3([Si](C)(C)C)CCC3)n[nH]c2C1(C)C)c1cccc(F)c1 [IV-911, (R)—N-[1-(3-Fluorophenyl)-3-hydroxy-3-methylbutyl]-6,6-dimethyl-3-[1-(trimethylsilyl)cyclobutanecarboxamido]-4,6-dihydropyrrolo[3,4-c]pyrazole-5(1H)-carboxamide]",≥ 50%
≤ 500 nM,"CC(C)(CO)C(NC(=O)N1Cc2c(NC(=O)C3([Si](C)(C)C)CCC3)n[nH]c2C1(C)C)c1cccc(F)c1 (stereo not drawn) [IV-918, N-[1-(3-Fluorophenyl)-3-hydroxy-2,2-dimethylpropyl]-6,6-dimethyl-3-[1-(trimethylsilyl)cyclobutanecarboxamido]-4,6-dihydropyrrolo[3,4-c]pyrazole-5(1H)-carboxamide]",≥ 50%
≤ 500 nM,"CCCO[C@@H](C(=O)N1Cc2c(NC(=O)C3([Si](C)(C)C)CCC3)n[nH]c2C1(C)C)c1ccccc1 [IV-1196, (R)—N-[6,6-Dimethyl-5-(2-phenyl-2-propoxyacetyl)-1,4,5,6-tetrahydropyrrolo[3,4-c]pyrazol-3-yl]-1-(trimethylsilyl)cyclobutanecarboxamide]",≥ 50%
≤ 500 nM,"CC(C)O[C@@H](C(=O)N1Cc2c(NC(=O)C3([Si](C)(C)C)CCC3)n[nH]c2C1(C)C)c1ccccc1 [IV-1204, (R)—N-[5-(2-Isopropoxy-2-phenylacetyl)-6,6-dimethyl-1,4,5,6-tetrahydropyrrolo[3,4-c]pyrazol-3-yl]-1-(trimethylsilyl)cyclobutanecarboxamide]",≥ 50%
≤ 500 nM,"CC1(C)c2[nH]nc(NC(=O)C3([Si](C)(C)C)CCC3)c2CN1C(=O)[C@H](OC1CC1)c1ccccc1 [IV-1208, (R)—N-[5-(2-Cyclopropoxy-2-phenylacetyl)-6,6-dimethyl-1,4,5,6-tetrahydropyrrolo[3,4-c]pyrazol-3-yl]-1-(trimethylsilyl)cyclobutanecarboxamide]",≥ 50%
≤ 500 nM,"CO[C@@H](C(=O)N1Cc2c(NC(=O)C3([Si](C)(C)C)CCC3)n[nH]c2C1(C)C)c1ccccc1F [IV-1383, (R)—N-{5-[2-(2-Fluorophenyl)-2-methoxyacetyl]-6,6-dimethyl-1,4,5,6-tetrahydropyrrolo[3,4-c]pyrazol-3-yl}-1-(trimethylsilyl)cyclobutanecarboxamide]",≥ 50%
≤ 500 nM,"COC(C(=O)N1Cc2c(NC(=O)C3([Si](C)(C)C)CCC3)n[nH]c2C1(C)C)c1cccc(F)c1 (stereo not drawn) [IV-1404, N-{5-[2-(3-Fluorophenyl)-2-methoxyacetyl]-6,6-dimethyl-1,4,5,6-tetrahydropyrrolo[3,4-c]pyrazol-3-yl}-1-(trimethylsilyl)cyclobutanecarboxamide]",≥ 50%

# Source: US10131679B2, “Substituted dihydropyrrolopyrazole compound” (UBE INDUSTRIES, LTD., priority 2014, dated 2018)
